Measurements taken from US20240174744A1, “METHODS OF TREATMENT USING PROTEIN BINDERS TO IRHOM2 EPITOPES” (SCIRHOM GMBH, priority 2021, published 2024).

System: LPS-induced release of TNFα from THP-1 cells
Assay: ELISA-based TNFα release assay, LPS-stimulated THP-1 cells
Assay type: cell-based, human
Conditions: 10 μg/ml, Batimastat 10 μM, LPS 50 ng/ml, 2 hours
Procedure: In the following study, ELISA-based TNFα release assays were performed to verify the inhibitory effects of the purified antibodies of the present disclosure on LPS-induced release of endogenous TNFα from human THP-1 monocytic cells.
In brief, on day 1, Nunc black MaxiSorp® 96-well plates (Thermo Fisher Scientific, USA) were coated overnight with 100 μl per well of mouse anti-human TNFα capture antibody (provided as part of the DuoSet ELISA kit) at 4 μg/ml TBS at 4° C. On day 2, the capture antibody solution was removed and MaxiSorp® plates were blocked with 300 μl per well of TBS, 1% BSA at room temperature for 3 hours. […] Using an infinite M1000 (Tecan Group, Switzerland) microplate reader, the fluorescence of each well was collected at an excitation wavelength of 435 nm and an emission wavelength of 555 nm. […]

CNC(=O)[C@H](Cc1ccccc1)NC(=O)[C@H](CC(C)C)[C@H](CSc1cccs1)C(=O)NO [Batimastat]
inhibition of LPS-induced release of TNFα from THP-1 cells (antibodies purified from hybridoma supernatants): 96.2%
inhibition of LPS-induced release of TNFα from THP-1 cells (recombinant antibodies (Expi293F)): 96.2%
